Values after ≈ are worked out from the molar mass of the structure shown.
Experiments:
purpose-bred beagles = assay: Serum glucose after single oral dose and glucose challenge 1 h post-dose in dogs; format: in vivo, dog; settings: mean ± SD; for Serum Glucose Concentration, 15 min / Serum Glucose Concentration, 30 min / Serum Glucose Concentration, 60 min / Serum Glucose Concentration, 120 min: after glucose challenge; for Serum Glucose Concentration, −60 min: before dosing; for Serum Glucose Concentration, 0 min: before glucose challenge (1 h post-dose)
Protocol: (§1) Groups of four purpose-bred beagles per cohort were administered ascending doses of bexagliflozin in the form of a proline co-crystal consisting of two moles of L-proline for every mole of bexagliflozin. The co-crystal was dissolved in 10% PEG400 and administered by oral gavage to dogs that had been fasted overnight. Control dogs were administered 10% PEG400. One hour after dosing, glucose solution (2 g kg^−1, 5 ml kg^−1) was administered by gavage. Serum glucose concentrations were quantitated by an automated clinical chemistry analyzer for samples collected before dosing, before glucose challenge, and 15, 30, 60, and 120 min after glucose challenge. Urine was collected from 0 to 4 h, 4 to 8 h and 8 to 24 h after dosing for electrolyte analyses (Na^+, K^+, Cl^− and Ca^2+) and glucose measurement. Whole blood samples of approximately 500 μL were collected from the cephalic vein 0, 0.25, 0.5, 1, 2, 4, 8, 12 and 24 h after dosing for pharmacokinetic analysis.

feline SGLT1 = assay: Inhibition of feline SGLT1
in vivo = settings: dog; for Tmax / half-life / AUC(0-inf) / AUC(0-t) / CL/F / Cmax / Vd/F: beagle, po
Protocol: as §1

Solubility = format: physicochemical
Sprague-Dawley rats = assay: PPAR-γ agonist (pioglitazone)-mediated fluid retention / plasma expansion model, 7 days, drugs in drinking water; format: in vivo, rat
Text: It has been recognized in human clinical practice that an undesirable side effect of PPAR-γ agonists of the thiazolidinedione class is fluid retention and edema, which limits their use in patients with congestive heart failure. The mechanism of action of the thiazolidinediones is believed to be through stimulation of expression of the epithelial sodium channel (ENaC) in the kidney, resulting in an increased uptake of sodium ions from the distal tubule. Sodium retention and the associated expansion of extracellular fluid volume are characteristic features of congestive heart failure in multiple species. […] The sodium channel blocker amiloride was delivered in drinking water to a third group of rats as a comparator. Plasma expansion was measured by hematocrit. […] Food weight was recorded to measure consumption over the course of the experiment. […] Full bottles were pre-weighed and the weights recorded to allow consumption to be measured over the course of the experiment. On days 1 and 7, rats were warmed using a heating pad and lightly anesthetized using isoflurane. Using a sterile scalpel blade, a small tail nick was made on the distal one third of the tail. Blood was collected in a heparinized microcapillary tube sealed with putty at one end and stored on ice until centrifugation (5000 rpm, 5 min). Plasma volume was determined using a microhematocrit capillary tube reader card. On day 7, rats, food and water bottles were again weighed and recorded and hematocrits were determined using blood collected by a tail nick.

cats with diabetes = assay: Owner and veterinarian assessments of vitality and weight in diabetic cats; format: in vivo, cat
Text: Assessments by both owners and veterinarians of correlative measures of cat vitality were also collected over the course of various studies. Some of the relevant measures for this analysis are the subjective impressions of cat musculature, solicited from both owners and veterinarians, and owner views of cat overall activity as well as leaping ability. The rating instrument was a 4-point scale with 0=excellent, 1=good, 2=fair and 3=poor.

[1] = rats, day 1 to day 7, mean ± SEM
[2] = rats, pioglitazone diet, mean ± SEM
[3] = rats, relative to day 1, mean ± SEM

Question: What does the source list for `OC[C@H]1O[C@@H](c2ccc(Cl)c(Cc3ccc(OCCOC4CC4)cc3)c2)[C@H](O)[C@@H](O)[C@@H]1O` [Bexagliflozin, (2S,3R,4R,5 S,6R)-2-(4-chloro-3-(4-(2-cyclopropoxyethoxy)benzyl)phenyl)-6-(hydroxymethyl)tetrahydro-2H-pyran-3,4,5-triol]?
Answer: Serum Glucose Concentration, 15 min (purpose-bred beagles; 0.02 mg kg^−1 oral): 122.13 ± 17.54 mg/dL; Serum Glucose Concentration, 30 min (purpose-bred beagles; 0.02 mg kg^−1 oral): 97.43 ± 6.87 mg/dL; Serum Glucose Concentration, 60 min (purpose-bred beagles; 0.02 mg kg^−1 oral): 93.29 ± 19.87 mg/dL; Serum Glucose Concentration, 120 min (purpose-bred beagles; 0.02 mg kg^−1 oral): 78.03 ± 10.98 mg/dL; Serum Glucose Concentration, −60 min (purpose-bred beagles; 0.02 mg kg^−1 oral, time relative to glucose challenge): 100.89 ± 3.49 mg/dL; Serum Glucose Concentration, 0 min (purpose-bred beagles; 0.02 mg kg^−1 oral): 95.94 ± 8.37 mg/dL; Serum Glucose Concentration, 15 min (purpose-bred beagles; 0.067 mg kg^−1 oral): 107.91 ± 12.08 mg/dL; Serum Glucose Concentration, 30 min (purpose-bred beagles; 0.067 mg kg^−1 oral): 104.31 ± 26.84 mg/dL; Serum Glucose Concentration, 60 min (purpose-bred beagles; 0.067 mg kg^−1 oral): 104.27 ± 17.85 mg/dL; Serum Glucose Concentration, 120 min (purpose-bred beagles; 0.067 mg kg^−1 oral): 79.65 ± 11.69 mg/dL; Serum Glucose Concentration, −60 min (purpose-bred beagles; 0.067 mg kg^−1 oral): 98.64 ± 7.63 mg/dL; Serum Glucose Concentration, 0 min (purpose-bred beagles; 0.067 mg kg^−1 oral): 91.58 ± 6.49 mg/dL; Serum Glucose Concentration, 15 min (purpose-bred beagles; 0.20 mg kg^−1 oral): 96.71 ± 7.21 mg/dL; Serum Glucose Concentration, 30 min (purpose-bred beagles; 0.20 mg kg^−1 oral): 105.48 ± 18.67 mg/dL; Serum Glucose Concentration, 60 min (purpose-bred beagles; 0.20 mg kg^−1 oral): 101.75 ± 14.83 mg/dL; Serum Glucose Concentration, 120 min (purpose-bred beagles; 0.20 mg kg^−1 oral): 76.10 ± 7.91 mg/dL; Serum Glucose Concentration, −60 min (purpose-bred beagles; 0.20 mg kg^−1 oral): 97.02 ± 7.61 mg/dL; Serum Glucose Concentration, 0 min (purpose-bred beagles; 0.20 mg kg^−1 oral): 84.65 ± 7.98 mg/dL; Serum Glucose Concentration, 15 min (purpose-bred beagles; 0.67 mg kg^−1 oral): 109.94 ± 17.55 mg/dL; Serum Glucose Concentration, 30 min (purpose-bred beagles; 0.67 mg kg^−1 oral): 109.04 ± 26.58 mg/dL; Serum Glucose Concentration, 60 min (purpose-bred beagles; 0.67 mg kg^−1 oral): 106.79 ± 11.98 mg/dL; Serum Glucose Concentration, 120 min (purpose-bred beagles; 0.67 mg kg^−1 oral): 76.95 ± 11.53 mg/dL; Serum Glucose Concentration, −60 min (purpose-bred beagles; 0.67 mg kg^−1 oral): 97.70 ± 5.27 mg/dL; Serum Glucose Concentration, 0 min (purpose-bred beagles; 0.67 mg kg^−1 oral): 87.08 ± 6.03 mg/dL; Serum Glucose Concentration, 15 min (purpose-bred beagles; 2.0 mg kg^−1 oral): 104.49 ± 9.60 mg/dL; Serum Glucose Concentration, 30 min (purpose-bred beagles; 2.0 mg kg^−1 oral): 112.86 ± 9.82 mg/dL; Serum Glucose Concentration, 60 min (purpose-bred beagles; 2.0 mg kg^−1 oral): 108.81 ± 6.77 mg/dL; Serum Glucose Concentration, 120 min (purpose-bred beagles; 2.0 mg kg^−1 oral): 71.06 ± 5.49 mg/dL; Serum Glucose Concentration, −60 min (purpose-bred beagles; 2.0 mg kg^−1 oral): 92.21 ± 7.11 mg/dL; Serum Glucose Concentration, 0 min (purpose-bred beagles; 2.0 mg kg^−1 oral): 85.10 ± 4.74 mg/dL; potency for feline SGLT1 (in words) (feline SGLT1): high potency; Tmax (in vivo): ~0.5 h; half-life (in vivo): 1.67 to 5.23 h; AUC(0-inf) (in vivo; 0.02 mg/kg): 45.3 ± 7.9 ng·h/mL; AUC(0-t) (in vivo; 0.02 mg/kg): 35.6 ± 5.2 ng·h/mL; CL/F (in vivo; 0.02 mg/kg): 7.6 mL/min/kg; Cmax (in vivo; 0.02 mg/kg): 16.3 ± 2.7 ng/mL; Tmax (in vivo; 0.02 mg/kg): 0.5 h; Vd/F (in vivo; 0.02 mg/kg): 1.08 ± 0.128 L/kg; half-life (in vivo; 0.02 mg/kg): 1.67 ± 0.26 h; AUC(0-inf) (in vivo; 0.067 mg/kg): 257 ± 62 ng·h/mL; AUC(0-t) (in vivo; 0.067 mg/kg): 240 ± 55 ng·h/mL; CL/F (in vivo; 0.067 mg/kg): 4.53 mL/min/kg; Cmax (in vivo; 0.067 mg/kg): 72.9 ± 11 ng/mL; Tmax (in vivo; 0.067 mg/kg): 0.5 h; Vd/F (in vivo; 0.067 mg/kg): 1.06 ± 0.067 L/kg; half-life (in vivo; 0.067 mg/kg): 2.81 ± 0.61 h; AUC(0-inf) (in vivo; 0.2 mg/kg): 769 ± 95 ng·h/mL; AUC(0-t) (in vivo; 0.2 mg/kg): 725 ± 80 ng·h/mL; CL/F (in vivo; 0.2 mg/kg): 4.42 mL/min/kg; Cmax (in vivo; 0.2 mg/kg): 233 ± 26 ng/mL; Tmax (in vivo; 0.2 mg/kg): 0.25 h; Vd/F (in vivo; 0.2 mg/kg): 1.12 ± 0.08 L/kg; half-life (in vivo; 0.2 mg/kg): 2.95 ± 0.28 h; AUC(0-inf) (in vivo; 0.67 mg/kg): 2670 ± 131 ng·h/mL; AUC(0-t) (in vivo; 0.67 mg/kg): 2600 ± 104 ng·h/mL; CL/F (in vivo; 0.67 mg/kg): 4.2 mL/min/kg; Cmax (in vivo; 0.67 mg/kg): 801 ± 46 ng/mL; Tmax (in vivo; 0.67 mg/kg): 0.5 h; Vd/F (in vivo; 0.67 mg/kg): 1.89 ± 0.398 L/kg; half-life (in vivo; 0.67 mg/kg): 5.23 ± 1.23 h; AUC(0-inf) (in vivo; 2 mg/kg): 8700 ± 1470 ng·h/mL; AUC(0-t) (in vivo; 2 mg/kg): 8600 ± 1520 ng·h/mL; CL/F (in vivo; 2 mg/kg): 3.95 mL/min/kg; Cmax (in vivo; 2 mg/kg): 2200 ± 539 ng/mL; Tmax (in vivo; 2 mg/kg): 0.5 h; Vd/F (in vivo; 2 mg/kg): 1.37 ± 0.601 L/kg; half-life (in vivo; 2 mg/kg): 3.89 ± 0.88 h; dose proportionality of Cmax and AUC (in vivo): roughly dose proportional; solubility in ethanol, propylene glycol and PEGs relative to water (Solubility): more soluble; solubility (Solubility; water at 25° C.): ~500 µg/mL (≈ 1080 µM); Plasma volume, Day 7 (Sprague-Dawley rats; rats after 7 days pioglitazone diet, group mean ± SEM): 54.7 ± 0.6 % of blood volume; Plasma volume, Day 1 (Sprague-Dawley rats; rats on 0.03% pioglitazone diet, by hematocrit, group mean ± SEM): 52.9 ± 0.5 % of blood volume; Effect on pioglitazone-mediated plasma expansion (conclusion) (Sprague-Dawley rats; rats, 7 days): substantially attenuates pioglitazone-mediated plasma expansion; Body Weight (%), Δ (percent mass gain) (Sprague-Dawley rats; [1]): 4.8 ± 1.3 %; Body Weight (g), Δ (Sprague-Dawley rats; [1]): 17.5 ± 4.7 g; Body Weight (%), Δ (percent mass gain) (Sprague-Dawley rats; rats, day 1 to day 7, mean ± SEM, listed as bexagliflozin): 4.8%; Plasma volume, Δ (day 1 to day 7) (Sprague-Dawley rats; rats, pioglitazone diet, group mean ± SEM): 1.8 ± 0.8 % of blood volume; Body Weight (g), Day 1 (Sprague-Dawley rats; [2]): 371.7 ± 5.0 ^ g; Body Weight (g), Day 7 (Sprague-Dawley rats; [2]): 389.2 ± 5.7 ^†† g; Body Weight (%), Day 1 (Sprague-Dawley rats; [3]): 100 ± 0 ^ %; Body Weight (%), Day 7 (Sprague-Dawley rats; [3]): 104.8 ± 1.3 ^†† %; owner assessment of activity (cats with diabetes; 4-point scale): more active; owner assessment of leaping ability (cats with diabetes; 4-point scale): better leaping ability; veterinarian and owner assessments of musculature (cats with diabetes; 4-point scale, statistically significant): musculature of study cats had improved; mean cat weight (cats with diabetes; by visit, highly significant): mean cat weight increased
